Results as given in patent US20180345047A1, “METHOD OF PROMOTING HAIR GROWTH” (Yeda Research and Development Co. Ltd., priority 2015, published 2018).

What was measured:
[1] = system: senescent epidermal cells; assay: Elimination of senescent cells in the skin epidermis of p14ARF-expressing mice (SA-β-Gal, p14ARF, cleaved caspase-3 stains); format: in vivo, K5-rtTA/tet-p14 mice; conditions: 75 mg/kg intraperitoneally
Method: (§1) Mouse experiments: K5-rtTA/tet-p14, described in (Toakrsly-Amiel et al.) were held on a mixed C57B1/129sv background. Mice received doxycycline (2 mg/ml) in the drinking water at 3 weeks of age for activation of the p14ARF transgene. Sibling tet-p14 single transgene control mice received doxycycline for the same period. After four weeks of transgene activation, ABT-737 (75 mg/kg in 30% propylene glycol, 5% Tween 80, 3.3% dextrose in water pH 4-5) or vehicle was injected into p14ARF-expressing mice intraperitoneally for 2 or 4 consecutive days. Mice were then shaved, sacrificed and back skins were paraffin embedded for immunohistology or frozen in OCT solution for cryosectioning and SA-β-gal stains.
Immunohistology: Immunohistology was performed according to standard procedures on 5 μm paraffin sections, using Peroxidase Substrate kits (Vector) or fluorescently labeled secondary antibodies (Jackson). Antibodies used: p14ARF (Abcam), CC3 (Cell Signaling), Ki67 (Labvision) and K15 (Santa Cruz). […] Positive cells were scored from >10 microscopic fields in each sample either by direct microscopic observation (SA-β-gal, p14) or on collected images (all other stains).
The present inventors set out to test whether the survival signals provided by Bcl-2 family members are necessary for the survival and retention of senescent cells in tissues. […] Concomitantly, the percentage of epidermal cells in which the transgenic p14^ARF protein could be detected was reduced (FIGS. 1D-E), indicating preferred elimination of transgene-expressing cells. Increased levels of apoptosis were detected in the epidermis after 2 days of ABT-737 treatment (FIGS. 1F-G), consistent with increased apoptosis as the mechanism of senescent cell elimination. […]

[2] = system: hair-follicle stem cells in the bulge; assay: Hair-follicle bulge stem cell proliferation and number in p14ARF-expressing mice (Ki67/K15 stain, CD34/CD49f FACS); format: in vivo, K5-rtTA/tet-p14 mice; conditions: vs vehicle
Method: as §1
Immunohistology: Immunohistology was performed according to standard procedures on 5 μm paraffin sections, using Peroxidase Substrate kits (Vector) or fluorescently labeled secondary antibodies (Jackson). Antibodies used: p14ARF (Abcam), CC3 (Cell Signaling), Ki67 (Labvision) and K15 (Santa Cruz). For Senescence-associated β-Galactosidase (SA-β-gal) stains, 10-12 μm cryosections of OCT-embedded mouse skins were fixed in 0.5% glutaraldehyde for 15 minutes, stained over night at 37° C. with 40 mM phosphate buffer pH=6 with 5 mM K4Fe(CN)6, 5 mM K3Fe(CN)6, 150 mM NaCl, 2 mM MgCl2 and 1 mg/ml X-gal, washed in PBS, fixed in 95% ethanol for 15 minutes, counterstained with nuclear fast red, dehydrated and mounted. Bright field images were collected using an Olympus CX41 and DS-Fi1 camera and processed using NIS Elements software (Nikon). Fluorescent images were taken using an Olympus FV1000 confocal microscope. Positive cells were scored from >10 microscopic fields in each sample either by direct microscopic observation (SA-β-gal, p14) or on collected images (all other stains).
Upon p14^ARF activation in mice at 3 weeks of age nearly all hair follicles are arrested in the resting (telogen) state, and only rare stem cells in the bulge express the proliferation marker Ki67^36 (FIGS. 5H-I). […] This effect was also evident three days after treatment was stopped (FIGS. 2A-B). […]

CN(C)CC[C@H](CSc1ccccc1)Nc1ccc(S(=O)(=O)NC(=O)c2ccc(N3CCN(Cc4ccccc4-c4ccc(Cl)cc4)CC3)cc2)cc1[N+](=O)[O-] [ABT-737]
number of senescent cells in the epidermis, determined by SA-β-Gal staining ([1]; 4 consecutive days, after 4 weeks p14ARF activation, relative to vehicle-treated mice): dramatically reduced
percentage of epidermal cells in which the transgenic p14ARF protein could be detected ([1]; 2 day treatment, vs vehicle): reduced
levels of apoptosis in the epidermis (cleaved caspase-3) ([1]; after 2 days of treatment, vs vehicle): Increased
number of CD34+/CD49f high bulge stem cells ([2]; FACS of epidermal cells after 2 days of treatment): increased
increase in proliferating (Ki67+) hair-follicle stem cells in the bulge after end of treatment ([2]; treated 2 days, three days after treatment was stopped): also evident
numbers of proliferating (Ki67+) hair-follicle stem cells in the bulge ([2]; treatment after 2-4 weeks of p14ARF induction, 75 mg/kg intraperitoneally): increase
